# Measured values as given in paper PMC7724566, “Prospects for Clinical Development of Stat5 Inhibitor IST5-002: High Transcriptomic Specificity in Prostate Cancer and Low Toxicity In Vivo” (Cancers, 2020).
# What was measured:
# [1] = tested on: panel of 54 kinases; experiment: Cell-free kinase panels, overall; format: biochemical; conditions: 1 µM
# Excerpt: Given that IST5 suppresses phosphorylation of Stat5 in PC cells, it is possible that IST5 inhibits the kinase(s) responsible for Stat5 phosphorylation and activation in PC cells. To evaluate if IST5 affects kinase activity in cancer cells, we tested kinase inhibitory activity of IST5 in two custom-tailored panels including 54 relevant kinases (Table 1), including Jak1, Jak2, Jak3, Tyk2, Abl1, Abl2, Lck, Fyn, Src and TrkB/C. In addition, we further tested if IST5 inhibits tyrosine phosphorylation of Jak1, Jak2, Jak3 or Tyk2 using a cell-based assay (Figure 5D), where phosphorylation of the kinase is indicative of enzymatic kinase activity. DU145 and CWR22Rv1 cells were treated with IST5 (6 µM) for 6 h followed by immunoprecipitation of Jak1, Jak2, Jak3 and Tyk2 and immunoblotting with anti-phospho-tyrosine antibody. […]
# For Jak1, Jak2, Jak3 and Tyk2, a radiometric filtration binding assay was conducted by Reaction Biologicals (Malvern, PA, USA) (Table 1). […] For evaluation of the activity of the other kinases, the Kinase Seeker Technology was utilized (Luceome Biotechnologies, Tucson, AZ, USA), which is a luminescence-based cell-free assay. […] The competitive displacement of the probe by an inhibitor is measured by a change in luminescence signal. […]
# [2] = tested on: athymic nude mice; experiment: Chronic toxicity study (28 days), plasma biochemistry; format: in vivo; conditions: i.p. 28 days; for A-G Ratio / ALT / AST / Albumin / Alk.Ptase / Bile Acid / Chol / TBIL / Globulin / BUN: plasma; for Globulin: in g/dL (unit assumed); for BUN: in mg/dL (unit assumed)
# Protocol: Forty athymic nude mice (8 weeks) (Crl:NU/NCr-Foxn1n) of either sex (20 males and 20 females) were randomized into four groups (n = 5/group) for either sex. The randomization of the mice was carried out based on their baseline body weight measured on day 0. IST5 or vehicle (0.3% hydroxypropyl cellulose, (Sigma-Aldrich, MO, St. Louis, MO, USA) were administered to the mice by i.p. injection for 28 days. The mice were observed daily for behavior, and body weights were measured on every 3rd day throughout the 28-day experimental protocol. The monitoring was started immediately after the compound administration and continued for 2 h for any acute signs of toxicity. In addition, the mice were monitored daily for any signs of toxicity using several clinical parameters. The clinical signs that were taken into consideration were as follows: 1) weight loss: rapid weight loss ([…]) or, weight loss of extended period time ([…]); 2) rapid growth of mass or masses; 3) paralysis or paresis (partial paralysis); 4) frank bleeding from any orifice; 5) lesions interfering with eating or drinking; 6) diarrhea (non-formed/soft stool or diarrhea liquid stool); 6) loss of body temperature; 7) appearance: rough coat, porphyrin staining (red or brown staining around eyes, nose, or along front paws, distended abdomen, alopecia; 8) eyes: ocular discharge, pale appearance, distinct icterus (jaundice or yellowing of the eyes); 9) respiration: coughing or wheezing, rales or crackling in the lungs, respiration increased or labored; 10) behavioral: hunched posture, huddling in a corner, lethargy, avoiding cagemate(s), head tilt, tremors (head, body, tail), spasticity (stiff muscles), ataxia (loss of voluntary muscle movement), seizures or convulsions, circling, persistent self-induced trauma, chattering or vocalizations, loss of startle response, loss of righting reflex. The clinical chemistry parameters measured were the same as those used for the acute toxicity study.
compound,measurement,setting,value
O=P(O)(O)OCC1OC(n2cnc3c(NCc4ccccc4)ncnc32)C(O)C1O (stereo not shown) [IST5],inhibitory activity against the kinases of Table 1,[1],no significant inhibitory activity
same,BW,[2]; 10 mg/kg,22.5 ± 1.1 gm
same,HCT,[2]; 10 mg/kg,0.43 ± 0.02 L/L
same,A-G Ratio,[2]; 10 mg/kg,1.93 ± 0.08
same,ALT,[2]; 10 mg/kg,50.4 ± 3.71 U/L
same,AST,[2]; 10 mg/kg,329.9 ± 30.9 U/L
same,Albumin,[2]; 10 mg/kg,2.69 ± 0.05 g/dL
same,Alk.Ptase,[2]; 10 mg/kg,51.3 ± 0.72 U/L
same,Bile Acid,[2]; 10 mg/kg,21.0 ± 12.7 µmol/dL
same,Chol,[2]; 10 mg/kg,65.0 ± 2.09 mg/dL
same,TBIL,[2]; 10 mg/kg,0.26 ± 0.02 mg/dL
same,Globulin,[2]; 10 mg/kg,1.41 ± 0.04
same,BUN,[2]; 10 mg/kg,20.5 ± 0.82
same,BW,[2]; 30 mg/kg,23.5 ± 0.6 gm
same,HCT,[2]; 30 mg/kg,0.45 ± 0.01 L/L
same,A-G Ratio,[2]; 30 mg/kg,1.9 ± 0.11
same,ALT,[2]; 30 mg/kg,45.2 ± 3.76 U/L
same,AST,[2]; 30 mg/kg,336 ± 57.1 U/L
same,Albumin,[2]; 30 mg/kg,2.74 ± 0.07 g/dL
same,Alk.Ptase,[2]; 30 mg/kg,53.0 ± 1.93 U/L
same,Bile Acid,[2]; 30 mg/kg,2.39 ± 0.32 µmol/dL
same,Chol,[2]; 30 mg/kg,70.3 ± 1.38 mg/dL
same,TBIL,[2]; 30 mg/kg,0.21 ± 0.01 mg/dL
same,Globulin,[2]; 30 mg/kg,1.47 ± 0.07
same,BUN,[2]; 30 mg/kg,25 ± 1.32
same,BW,[2]; 100 mg/kg,23.5 ± 0.9 gm
same,HCT,[2]; 100 mg/kg,0.43 ± 0.03 L/L
same,ALT,[2]; 100 mg/kg,50.9 ± 3.83 U/L
same,AST,[2]; 100 mg/kg,327 ± 4.03 U/L
same,Albumin,[2]; 100 mg/kg,2.74 ± 0.04 g/dL
same,Alk.Ptase,[2]; 100 mg/kg,53.3 ± 1.76 U/L
same,Bile Acid,[2]; 100 mg/kg,2.98 ± 0.29 µmol/dL
same,Chol,[2]; 100 mg/kg,75.9 ± 2.06 mg/dL
same,BUN,[2]; 100 mg/kg,23.0 ± 0.07
